Data reported in patent publication US20230302036A1, “COMPOSITIONS FOR TREATMENT OF SPINAL MUSCULAR ATROPHY” (priority 2020, published 2023).
Oligonucleotides are written 5' to 3', each unit as a sugar letter and its base; * is a phosphorothioate linkage, no mark a phosphodiester; rarer units and linkages stand in square brackets, end groups in braces. Plain capitals give the bases only. e = 2'-O-(2-methoxyethyl) (MOE); [5mC] = 5-methylcytosine

How the values were obtained:
[1] = tested on: endogenous SMN2 E7 alternative splicing; test: SMN2 E7 alternative splicing by radioactive RT-PCR in HEK293T cells; assay type: cell-based, human; conditions: HEK293T
Procedure: Alternative splicing was analyzed by radioactive RT-PCR followed by native polyacrylamide gel electrophoresis and autoradiography. Bars display means ± SD of percentage of the radioactivity in the FL band over the sum of radioactivity measurements in the FL and ΔE7 bands of at least three independent transfection experiments. A two-tailed Student’s t test was used to determine the significance between events. (FIG. 1A) HEK293T cells were co-transfected with the SMN2 minigene and expression vectors for WT^res and hC4 Pol II, followed by addition of α-amanitin. (FIG. 1B) Effect of camptothecin (CPT) on SMN2 E7 alternative splicing. HEK293T cells were incubated for at least 6 hours with 3 µM CPT. Combined effects on endogenous SMN2 E7 alternative splicing of transfection with 25 nM ASO1 and treatment with 3 µM TSA for 24 hr (FIG. 1C), 10 mM VPA for 24 hr (FIG. 1D), or 25 µM 5-AZA for 48 hr (FIG. 1E). Combined effects on HEK293T endogenous SMN2 E7 alternative splicing of transfection with 25 nM each of si-hnRNPA1 and si-hnRNPA2, and treatment with 3 µM TSA for 24 hr (FIG. 1F) or 10 mM VPA for 24 hr (FIG. 1G). […]
HEK293T, HeLa, and SMA type I homozygous and carrier fibroblasts 3813 and 3814 (Coriell Cell Repositories, Camden, New Jersey, United States) were grown in Dulbecco’s modified Eagle’s medium (DMEM) containing 4.5 g of glucose and 10% fetal bovine serum (Gibco) at 37° C. Cells were plated at a density of 2×10^5 cells per well in 12-well plates 24 hr before transfection. siRNA (25 nM), plasmid (500 ng), or ASO (25 nM) transfections were performed 24 hr after cells were plated, using 3 µl of Lipofectamine 2000 (Thermo Fisher Scientific) per well in 12-well plates. 24-48 h later, cells were treated with Trichostatin A (Sigma, T8552), Valproic Acid (Sigma, P4543), 5-Azacytidine (Sigma, A2385) or vehicle for the indicated time, and harvested for downstream procedures. […]

[2] = tested on: RNAPII (total, P-Ser5, P-Ser2) along the SMN2 gene; test: ChIP-qPCR of RNAPII distribution along the SMN2 gene in HEK293T cells; assay type: cell-based, human
Procedure: H3K9me2 (FIG. 2B), total RNAPII (FIG. 2C), P-Ser5 RNAPII (FIG. 2D), and P-Ser2 RNAPII (FIG. 2E) distribution along the SMN2 gene, assessed by ChIP-qPCR in HEK293T cells transfected with the scramble oligo (CTRL) or ASO1 and treated with 10 mM VPA. Four independent immunoprecipitation replicates were conducted per experiment. Data are represented as mean ± S.D. (n = 4, *p < 0.05, two-tailed Student’s t test).
Total distribution of H3K9me2 (FIG. 3C), total RNAPII (FIG. 3D), P-Ser5 RNAPII (FIG. 3E), and P-Ser2 RNAPII (FIG. 3F) along the SMN2 gene is shown. This distribution was assessed by ChIP-qPCR in HEK293T cells transfected with the scramble oligo (CTRL) or ASO2 and treated with 10 mM VPA. Four independent immunoprecipitation replicates were conducted per experiment. Data are represented as mean ± S.D. (n = 4, *p < 0.05, two-tailed Student’s t test).
Approximately 2×10^6 HEK293T cells per sample were treated for 10 min in 1% (v/v) formaldehyde at room temperature to crosslink protein-DNA complexes. Crosslinking was stopped with glycine at a final concentration of 125 mM. Cells were washed twice with cold PBS and swelled on ice for 10 min in 25 mM HEPES pH 8, 1.5 mM MgCl2, 10 mM KCl, 0.1% NP-40, 1 mM DTT and 1× protease inhibitor cocktail set III (Calbiochem). Following Dounce homogenization, the nuclei were collected and resuspended in 1 ml sonication buffer (50 mM HEPES pH 8, 140 mM NaCl, 1 mM EDTA, 0.1% sodium deoxycholate, 0.1% SDS and 1× protease inhibitor cocktail). DNA was sonicated in an ultrasonic bath (Bioruptor Diagenode) to an average length of 200-500 bp. After addition of 1% (v/v) Triton X-100, samples were centrifuged at 15,000 ×g. Supernatants were immunoprecipitated O/N with 40 µl of pre-coated anti-IgG magnetic beads (Dynabeads M-280, Invitrogen) previously incubated with the antibody of interest for 6 hr at 4° C. The antibodies used were: rabbit anti-H3 (2 µg, Abcam ab1791), mouse anti-H3K9me2 (4 µg, Abcam ab1220), rabbit anti H3K9me3 (4 µg, Abcam ab8898), rabbit anti H3K9Ac (2 µg, Abcam ab4441), rabbit anti Rpb1 NTD (2 µg, Cell Signaling, D8L4Y), rabbit Phospho-Rpb1 CTD Ser2 (2 µg, Cell Signaling, E1Z3G), rabbit Phospho-Rpb1 CTD Ser5 (2 µg, Cell Signaling, D9N5I). Control immunoprecipitations were performed with rabbit IgG (1 µg, Abcam ab171870). Beads were washed sequentially for 5 min each in Low-salt (20 mM Tris-HCl pH 8, 150 mM NaCl, 2 mM EDTA, 1% Triton X-100, 0.1% SDS), High-Salt (20 mM Tris-HCl pH 8, 500 mM NaCl, 2 mM EDTA, 1% Triton X-100, 0.1% SDS) and LiCl buffer (10 mM Tris pH 8.0, 1 mM EDTA, 250 mM LiCl, 1% NP-40, 1% Na-deoxycholate) for 5 min at 4° C. and then twice in TE 1x for 2 min at room temperature. Beads were eluted in 1% SDS and 100 mM NaHCO3 buffer for 15 min at 65° C. and crosslinking was reversed for 6 hr after addition of NaCl to a final concentration of 200 mM. Chromatin was precipitated with ethanol overnight, treated with 20 µg proteinase K, and purified by phenol-chloroform extraction. Immunoprecipitated DNA (1.5 µl) and serial dilutions of the 10% input DNA (1:4, 1:20, 1: 100, and 1:500) were analyzed by SYBR-Green real-time qPCR.

[3] = tested on: SMA mice; test: Righting reflex test of P7 SMA mice; assay type: in vivo, mouse; conditions: for righting reflex delay (in words): untreated mutant ~45 seconds
Procedure: Scramble (Ctrl) (n=12, 40 trials), VPA (n=13, 50 trials), ASO1 (n=11, 50 trials), ASO1 + VPA (n=17, 68 trials), and untreated heterozygotes (n=12, 36 trials). […] In the righting-reflex test, the time it took a mouse to right itself on its back on a flat surface was measured.
To complement the survival and weight-gain data, two noninvasive neuromuscular function tests, appropriate for mouse pups, were performed. In the righting reflex test, the time it takes a mouse to right itself when placed on its back on a flat surface was measured (Feather-Schussler et al., 2016).

[4] = tested on: H3K9Ac along the SMN2 gene; test: ChIP-qPCR of H3K9Ac distribution along the SMN2 gene in HEK293T cells; assay type: cell-based, human; conditions: 10 mM VPA 12 hr or ASO1 transfection
Procedure: Four independent immunoprecipitation replicates were conducted per experiment. Data are represented as mean ± S.D. (n = 4, *p < 0.05, two-tailed Student's t test). […] Top: control Western blot for efficient expression of the c-Myc-SMN fusion protein encoded by plasmid […], cat.# 71687) using anti-tubulin (tub.) as loading control. Bottom: […] Distribution of these histone marks was assessed by ChIP-qPCR, with amplicons mapping near the numbered exons (E) and introns (i). Three independent immunoprecipitation replicates were conducted per experiment. Data are represented as mean ± S.D. (n = 5; in all cases p was much higher than 0.05, two-tailed Student's t test). […] Top: control Western blot for efficient expression of the […] fusion protein encoded by plasmid pEGFP-RNASEH1 (Addgene, cat.# 108699), using anti-actin (act.) as loading control. Bottom: […] Top: control Western blot for efficient AGO1 knockdown using anti-tubulin (tub.) as loading control. Bottom: […] RT-PCR conditions for FIGS. 10A, 10C and 10D were as in FIGS. 1A-1G . Approximately 2×10^6 HEK293T cells per sample were treated for 10 min in 1% (v/v) formaldehyde at room temperature to crosslink protein-DNA complexes. Crosslinking was stopped with glycine at a final concentration of 125 mM. […]

| Compound | effect of hnRNPA1/A2 depletion in promoting E7 inclusion upon HDAC inhibitor treatment ([1]; 25 nM each si-hnRNPA1 and si-hnRNPA2, no ASO1, 3 µM TSA or 10 mM VPA 24 hr) | RNAPII peak (total, P-Ser5, P-Ser2) in ASO1-transfected cells additionally treated with VPA ([2]; ASO1 plus 10 mM VPA) | roadblocks to elongation in ASO2-transfected cells treated with VPA ([2]; ASO2 plus 10 mM VPA) | righting reflex delay (in words) [3] | H3K9 acetylation along the SMN2 gene [4] | effect on SMN2 E7 inclusion, agent alone ([1]; 25 nM ASO, 3 µM TSA 24 hr, 25 µM 5-AZA 48 hr, 3 µM CPT) | P-Ser2 RNAPII density ([2]; ASO transfection vs scramble) | P-Ser5 RNAPII density ([2]; ASO transfection vs scramble) | total RNAPII density ([2]; ASO transfection vs scramble) | righting reflex, time to right [3] |
| --- | --- | --- | --- | --- | --- | --- | --- | --- | --- | --- |
| CCCC(CCC)C(=O)O [VPA, valproic acid] | stronger | abolished | abolished | not significantly changed | promoted intragenic H3K9 acetylation |  |  |  |  |  |
| ASO1: 5′-ATTCACTTTCATAATGCTGG-3′ 2′-O-methoxyethyl-modified oligonucleotide with phosphorothioate backbone and all 5-methyl cytosines; nusinersen variant with 2-nucleotide extension (antisense eA*eT*eT*e[5mC]*eA*e[5mC]*eT*eT*eT*e[5mC]*eA*eT*eA*eA*eT*eG*e[5mC]*eT*eG*eG) |  |  |  | greatly reduced | not affected | promoted inclusion | greatly increased | greatly increased | greatly increased | ~ 10 seconds |
